Experimental data: paper PMC9851200, “Multiparameter phenotypic screening for endogenous TFEB and TFE3 translocation identifies novel chemical series modulating lysosome function” (Autophagy, 2022)

Tests used:
Format in all cases: binding
[1] = molecular target: kinases (KINOMEscan panel) (Homo sapiens, UniProt P29376); settings: LTK; NEW KINOMEscan
[2] = molecular target: kinases (KINOMEscan panel) (Homo sapiens, UniProt Q13705); settings: kinase ACVR2B; NEW KINOMEscan
[3] = molecular target: T1, kinases (KINOMEscan panel) (Homo sapiens, UniProt Q14164)
T1 sequence (Q14164 1-716): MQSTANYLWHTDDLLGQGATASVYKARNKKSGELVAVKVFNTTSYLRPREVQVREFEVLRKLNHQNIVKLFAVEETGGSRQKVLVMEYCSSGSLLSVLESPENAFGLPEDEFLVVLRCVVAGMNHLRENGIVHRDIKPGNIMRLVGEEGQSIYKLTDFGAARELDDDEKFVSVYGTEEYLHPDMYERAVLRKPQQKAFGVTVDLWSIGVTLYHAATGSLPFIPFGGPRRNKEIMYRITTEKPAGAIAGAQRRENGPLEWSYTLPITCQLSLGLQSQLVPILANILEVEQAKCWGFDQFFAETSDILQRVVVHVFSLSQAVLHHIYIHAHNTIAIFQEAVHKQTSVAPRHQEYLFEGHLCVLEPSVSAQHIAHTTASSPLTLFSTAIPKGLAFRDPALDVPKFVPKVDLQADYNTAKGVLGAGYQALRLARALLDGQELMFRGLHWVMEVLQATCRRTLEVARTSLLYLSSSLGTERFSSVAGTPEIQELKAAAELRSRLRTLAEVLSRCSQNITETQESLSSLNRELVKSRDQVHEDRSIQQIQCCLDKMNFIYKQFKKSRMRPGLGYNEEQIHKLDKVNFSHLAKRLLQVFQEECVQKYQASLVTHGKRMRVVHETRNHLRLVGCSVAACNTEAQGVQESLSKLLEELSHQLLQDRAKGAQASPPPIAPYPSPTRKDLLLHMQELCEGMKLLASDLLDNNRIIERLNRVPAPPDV

[4] = molecular target: T2, kinases (KINOMEscan panel) (Homo sapiens, UniProt P52333); settings: kinase JAK3(JH1domain-catalytic); NEW KINOMEscan
T2 sequence (P52333 1-1124): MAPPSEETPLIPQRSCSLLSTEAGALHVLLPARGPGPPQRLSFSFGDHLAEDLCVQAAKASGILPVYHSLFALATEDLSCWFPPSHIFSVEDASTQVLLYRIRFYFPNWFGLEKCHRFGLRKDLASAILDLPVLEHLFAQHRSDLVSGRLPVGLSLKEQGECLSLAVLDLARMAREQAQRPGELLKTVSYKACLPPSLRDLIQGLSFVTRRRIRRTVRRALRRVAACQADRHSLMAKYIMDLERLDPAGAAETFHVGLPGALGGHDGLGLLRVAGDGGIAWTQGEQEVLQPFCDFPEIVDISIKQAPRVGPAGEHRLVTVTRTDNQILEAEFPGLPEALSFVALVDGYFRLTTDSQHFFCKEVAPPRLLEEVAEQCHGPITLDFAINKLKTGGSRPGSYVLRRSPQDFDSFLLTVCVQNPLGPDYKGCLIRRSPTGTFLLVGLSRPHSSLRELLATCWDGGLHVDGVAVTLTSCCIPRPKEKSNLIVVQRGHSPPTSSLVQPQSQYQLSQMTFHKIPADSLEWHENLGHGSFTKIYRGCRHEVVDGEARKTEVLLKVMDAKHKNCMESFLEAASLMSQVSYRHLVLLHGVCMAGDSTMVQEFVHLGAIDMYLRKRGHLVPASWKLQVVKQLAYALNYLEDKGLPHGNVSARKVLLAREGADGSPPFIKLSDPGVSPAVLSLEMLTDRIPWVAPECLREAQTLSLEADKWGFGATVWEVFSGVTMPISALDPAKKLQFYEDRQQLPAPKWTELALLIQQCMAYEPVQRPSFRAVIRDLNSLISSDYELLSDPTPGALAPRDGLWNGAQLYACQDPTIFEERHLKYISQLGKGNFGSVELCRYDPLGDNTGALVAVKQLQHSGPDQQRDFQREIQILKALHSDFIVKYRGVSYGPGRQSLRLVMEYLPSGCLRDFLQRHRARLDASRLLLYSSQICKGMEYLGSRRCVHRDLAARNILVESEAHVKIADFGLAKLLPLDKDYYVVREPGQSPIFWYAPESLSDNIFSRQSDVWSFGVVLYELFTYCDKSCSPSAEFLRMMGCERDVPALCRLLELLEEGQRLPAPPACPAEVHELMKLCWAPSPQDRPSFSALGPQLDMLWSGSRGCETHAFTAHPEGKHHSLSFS

[5] = molecular target: T3, kinases (KINOMEscan panel) (Homo sapiens, UniProt Q8TDC3); settings: BRSK1; NEW KINOMEscan
T3 sequence (Q8TDC3 1-778): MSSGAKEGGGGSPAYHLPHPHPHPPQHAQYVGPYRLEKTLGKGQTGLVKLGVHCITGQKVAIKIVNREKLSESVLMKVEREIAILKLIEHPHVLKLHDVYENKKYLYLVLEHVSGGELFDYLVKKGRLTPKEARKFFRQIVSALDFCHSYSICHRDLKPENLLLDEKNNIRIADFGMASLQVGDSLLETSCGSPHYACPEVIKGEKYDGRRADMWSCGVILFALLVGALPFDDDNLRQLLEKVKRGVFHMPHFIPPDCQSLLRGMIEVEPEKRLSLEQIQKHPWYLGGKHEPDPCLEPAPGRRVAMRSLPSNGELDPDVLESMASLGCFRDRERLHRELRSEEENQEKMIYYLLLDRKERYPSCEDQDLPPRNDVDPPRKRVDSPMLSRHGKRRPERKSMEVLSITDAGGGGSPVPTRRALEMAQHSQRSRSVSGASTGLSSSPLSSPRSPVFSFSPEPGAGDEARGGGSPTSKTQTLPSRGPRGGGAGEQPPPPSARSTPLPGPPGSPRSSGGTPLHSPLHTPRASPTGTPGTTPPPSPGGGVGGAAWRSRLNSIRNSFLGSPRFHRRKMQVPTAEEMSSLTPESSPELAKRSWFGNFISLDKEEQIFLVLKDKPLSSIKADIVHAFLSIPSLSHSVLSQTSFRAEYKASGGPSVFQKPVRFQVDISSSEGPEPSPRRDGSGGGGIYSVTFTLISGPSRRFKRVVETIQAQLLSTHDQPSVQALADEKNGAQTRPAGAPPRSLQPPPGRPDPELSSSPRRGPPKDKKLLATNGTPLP

Chain of kinases (KINOMEscan panel) (Homo sapiens, UniProt P29376) (P29376 17-864): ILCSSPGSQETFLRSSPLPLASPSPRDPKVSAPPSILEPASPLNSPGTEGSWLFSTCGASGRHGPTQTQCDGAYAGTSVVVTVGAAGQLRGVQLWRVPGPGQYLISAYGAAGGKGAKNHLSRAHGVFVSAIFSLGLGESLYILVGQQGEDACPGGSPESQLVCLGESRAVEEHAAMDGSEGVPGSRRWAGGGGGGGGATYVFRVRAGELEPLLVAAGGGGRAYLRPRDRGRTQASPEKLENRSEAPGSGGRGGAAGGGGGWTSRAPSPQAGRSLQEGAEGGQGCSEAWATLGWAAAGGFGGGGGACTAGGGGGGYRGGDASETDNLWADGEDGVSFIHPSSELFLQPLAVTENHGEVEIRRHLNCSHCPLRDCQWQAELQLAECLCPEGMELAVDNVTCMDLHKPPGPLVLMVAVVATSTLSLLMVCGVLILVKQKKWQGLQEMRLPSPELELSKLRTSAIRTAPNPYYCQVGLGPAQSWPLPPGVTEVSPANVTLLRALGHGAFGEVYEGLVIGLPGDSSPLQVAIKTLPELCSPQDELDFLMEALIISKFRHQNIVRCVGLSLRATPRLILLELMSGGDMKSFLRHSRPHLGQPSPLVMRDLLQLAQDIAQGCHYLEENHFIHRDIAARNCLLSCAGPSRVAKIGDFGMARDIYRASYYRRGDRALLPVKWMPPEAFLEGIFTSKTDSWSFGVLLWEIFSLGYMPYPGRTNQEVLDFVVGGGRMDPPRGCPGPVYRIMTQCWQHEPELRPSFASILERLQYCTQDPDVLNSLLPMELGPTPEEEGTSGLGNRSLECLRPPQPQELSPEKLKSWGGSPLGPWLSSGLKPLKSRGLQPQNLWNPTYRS
Chain of kinases (KINOMEscan panel) (Homo sapiens, UniProt Q13705) (Q13705 19-512): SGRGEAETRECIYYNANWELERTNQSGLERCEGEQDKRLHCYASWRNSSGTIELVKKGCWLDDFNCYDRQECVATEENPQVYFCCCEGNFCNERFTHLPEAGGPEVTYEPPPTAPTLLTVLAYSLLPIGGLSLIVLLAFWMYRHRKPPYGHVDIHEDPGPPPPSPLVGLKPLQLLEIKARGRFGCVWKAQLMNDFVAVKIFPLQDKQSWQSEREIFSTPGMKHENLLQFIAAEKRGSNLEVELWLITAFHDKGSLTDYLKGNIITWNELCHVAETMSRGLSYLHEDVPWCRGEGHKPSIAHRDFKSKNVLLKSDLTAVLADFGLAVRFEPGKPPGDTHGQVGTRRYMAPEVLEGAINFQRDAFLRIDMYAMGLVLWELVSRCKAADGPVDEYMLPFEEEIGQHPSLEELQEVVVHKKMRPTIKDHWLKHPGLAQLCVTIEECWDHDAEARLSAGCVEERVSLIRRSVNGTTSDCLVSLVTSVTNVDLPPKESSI

SMILES | KINOMEscan LTK [1] | KINOMEscan ACVR2B [2] | KINOMEscan IKBKE/IKK-epsilon [3] | KINOMEscan JAK3(JH1domain-catalytic) [4] | KINOMEscan BRSK1 [5]
Cc1cccc(-c2nc(Nc3ccc4nn(C)cc4c3)c3ccccc3n2)n1 [NK167] | 6 | 0 | 0 | 0 | 0
Cc1cccc(-c2nc(N(C)c3ccc4ncsc4c3)c3ccccc3n2)n1 [NK-161] | 14 | 22 | 0 | 0 | 0
